Data published in ChEMBL document CHEMBL4507281, “Data for DCP probe BI-4394” (2021).

How the values were obtained:
Conditions in all cases: Compound concentration 10.0 uM
[1] = target: T1, Tyrosine-protein kinase ZAP-70 (Homo sapiens) (UniProt P43403)
T1 sequence (whole entry): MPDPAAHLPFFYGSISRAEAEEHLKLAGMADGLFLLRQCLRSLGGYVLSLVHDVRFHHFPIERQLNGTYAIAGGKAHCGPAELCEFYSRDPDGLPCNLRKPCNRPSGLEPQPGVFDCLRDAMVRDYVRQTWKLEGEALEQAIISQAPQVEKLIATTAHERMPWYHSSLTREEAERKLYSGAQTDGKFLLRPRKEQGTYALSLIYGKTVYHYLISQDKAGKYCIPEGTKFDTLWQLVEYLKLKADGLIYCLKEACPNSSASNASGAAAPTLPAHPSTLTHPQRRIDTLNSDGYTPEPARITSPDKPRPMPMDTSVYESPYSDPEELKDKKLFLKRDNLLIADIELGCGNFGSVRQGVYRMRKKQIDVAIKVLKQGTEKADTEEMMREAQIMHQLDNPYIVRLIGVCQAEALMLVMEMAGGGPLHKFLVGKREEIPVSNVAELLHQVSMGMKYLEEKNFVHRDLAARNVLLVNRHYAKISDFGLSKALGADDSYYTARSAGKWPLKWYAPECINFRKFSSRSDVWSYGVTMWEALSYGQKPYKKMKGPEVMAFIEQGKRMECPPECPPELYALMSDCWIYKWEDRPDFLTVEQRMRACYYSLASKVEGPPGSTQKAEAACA

[2] = target: Insulin-like growth factor 1 receptor (Homo sapiens) (UniProt P08069)
Insulin-like growth factor 1 receptor (Homo sapiens), sequence (P08069 31-736 limits assumed): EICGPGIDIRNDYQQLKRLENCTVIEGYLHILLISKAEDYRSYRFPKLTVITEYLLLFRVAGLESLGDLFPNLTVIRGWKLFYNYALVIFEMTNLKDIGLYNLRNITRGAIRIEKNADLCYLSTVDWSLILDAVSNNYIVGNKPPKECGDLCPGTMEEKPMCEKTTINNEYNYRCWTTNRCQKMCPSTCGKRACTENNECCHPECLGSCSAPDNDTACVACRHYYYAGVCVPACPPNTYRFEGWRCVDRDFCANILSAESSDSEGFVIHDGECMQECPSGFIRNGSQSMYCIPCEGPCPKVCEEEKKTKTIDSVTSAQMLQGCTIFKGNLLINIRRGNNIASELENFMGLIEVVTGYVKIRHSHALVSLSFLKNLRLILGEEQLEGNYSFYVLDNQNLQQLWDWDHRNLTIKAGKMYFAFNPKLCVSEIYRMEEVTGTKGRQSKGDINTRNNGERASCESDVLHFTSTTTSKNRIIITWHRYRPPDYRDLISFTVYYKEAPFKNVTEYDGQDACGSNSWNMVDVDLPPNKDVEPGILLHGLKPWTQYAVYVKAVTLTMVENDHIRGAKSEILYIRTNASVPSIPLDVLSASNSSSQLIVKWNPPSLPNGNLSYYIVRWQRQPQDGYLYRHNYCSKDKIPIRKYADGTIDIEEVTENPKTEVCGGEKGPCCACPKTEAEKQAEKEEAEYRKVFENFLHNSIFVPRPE
Insulin-like growth factor 1 receptor (Homo sapiens), sequence (P08069 741-1367 limits assumed): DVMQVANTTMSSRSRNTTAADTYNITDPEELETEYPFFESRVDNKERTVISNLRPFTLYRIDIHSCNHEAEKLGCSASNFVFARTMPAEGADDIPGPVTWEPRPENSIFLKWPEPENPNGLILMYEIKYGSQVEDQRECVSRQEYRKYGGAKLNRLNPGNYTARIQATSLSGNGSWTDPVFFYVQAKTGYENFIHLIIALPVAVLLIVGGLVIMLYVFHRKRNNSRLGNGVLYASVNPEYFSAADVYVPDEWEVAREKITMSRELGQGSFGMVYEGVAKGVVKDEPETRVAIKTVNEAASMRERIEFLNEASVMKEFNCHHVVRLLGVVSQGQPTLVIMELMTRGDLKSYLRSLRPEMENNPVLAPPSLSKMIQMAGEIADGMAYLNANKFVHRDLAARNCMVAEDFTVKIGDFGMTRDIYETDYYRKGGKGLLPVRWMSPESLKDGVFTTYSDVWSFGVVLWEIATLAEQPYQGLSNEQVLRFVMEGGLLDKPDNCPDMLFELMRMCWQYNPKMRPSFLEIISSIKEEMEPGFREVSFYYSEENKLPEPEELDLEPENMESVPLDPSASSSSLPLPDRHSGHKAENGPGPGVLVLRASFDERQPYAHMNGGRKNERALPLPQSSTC

[3] = target: Fibroblast growth factor receptor 1 (Homo sapiens) (UniProt P11362)
Fibroblast growth factor receptor 1 (Homo sapiens), sequence (P11362 22-822 limits assumed): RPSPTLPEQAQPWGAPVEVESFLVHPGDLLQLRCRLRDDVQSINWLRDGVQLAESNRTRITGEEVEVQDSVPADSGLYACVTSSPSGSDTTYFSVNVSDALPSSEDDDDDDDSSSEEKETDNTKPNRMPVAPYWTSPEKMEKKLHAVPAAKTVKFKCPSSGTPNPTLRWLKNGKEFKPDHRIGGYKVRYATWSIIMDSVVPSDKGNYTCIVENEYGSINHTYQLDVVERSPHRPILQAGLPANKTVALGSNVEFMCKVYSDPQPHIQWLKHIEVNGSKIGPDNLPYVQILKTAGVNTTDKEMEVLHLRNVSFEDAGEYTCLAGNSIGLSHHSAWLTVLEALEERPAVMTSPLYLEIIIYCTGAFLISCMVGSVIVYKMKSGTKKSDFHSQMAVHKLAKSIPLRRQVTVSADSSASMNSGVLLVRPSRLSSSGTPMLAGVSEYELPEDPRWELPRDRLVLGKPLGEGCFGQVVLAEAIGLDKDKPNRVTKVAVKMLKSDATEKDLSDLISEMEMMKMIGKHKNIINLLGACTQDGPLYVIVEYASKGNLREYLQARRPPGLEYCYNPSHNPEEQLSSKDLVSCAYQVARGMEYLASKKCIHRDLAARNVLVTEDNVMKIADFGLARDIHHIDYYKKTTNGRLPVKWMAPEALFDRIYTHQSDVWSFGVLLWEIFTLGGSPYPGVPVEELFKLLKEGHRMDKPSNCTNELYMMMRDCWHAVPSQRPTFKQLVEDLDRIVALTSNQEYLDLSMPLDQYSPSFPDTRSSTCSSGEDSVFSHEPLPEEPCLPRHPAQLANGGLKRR

[4] = target: Serine/threonine-protein kinase MARK2 (Homo sapiens) (UniProt Q7KZI7)
Serine/threonine-protein kinase MARK2 (Homo sapiens), sequence (Q7KZI7 whole entry, canonical isoform): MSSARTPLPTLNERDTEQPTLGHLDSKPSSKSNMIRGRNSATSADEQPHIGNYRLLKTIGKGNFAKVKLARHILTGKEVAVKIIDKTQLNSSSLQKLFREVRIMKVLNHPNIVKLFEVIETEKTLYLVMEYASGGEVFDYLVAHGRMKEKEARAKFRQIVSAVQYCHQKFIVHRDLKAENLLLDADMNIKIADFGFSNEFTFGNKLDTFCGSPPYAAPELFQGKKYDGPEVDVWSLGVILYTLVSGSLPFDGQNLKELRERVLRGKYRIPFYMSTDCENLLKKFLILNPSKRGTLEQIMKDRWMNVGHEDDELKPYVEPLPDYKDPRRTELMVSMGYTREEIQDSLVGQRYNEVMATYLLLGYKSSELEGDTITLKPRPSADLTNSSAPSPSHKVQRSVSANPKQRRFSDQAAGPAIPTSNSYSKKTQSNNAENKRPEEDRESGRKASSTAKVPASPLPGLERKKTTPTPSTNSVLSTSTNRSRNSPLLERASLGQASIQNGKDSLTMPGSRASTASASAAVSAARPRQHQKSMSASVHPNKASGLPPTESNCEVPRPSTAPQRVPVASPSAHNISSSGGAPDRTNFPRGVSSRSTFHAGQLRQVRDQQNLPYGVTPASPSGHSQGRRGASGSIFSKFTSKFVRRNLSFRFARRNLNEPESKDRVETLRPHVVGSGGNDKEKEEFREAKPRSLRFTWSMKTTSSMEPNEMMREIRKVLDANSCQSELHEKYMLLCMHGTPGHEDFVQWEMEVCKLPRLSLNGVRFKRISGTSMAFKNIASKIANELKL

[5] = target: T2, Phosphorylase b kinase regulatory subunit alpha, liver isoform (Homo sapiens) (UniProt P46019)
T2 sequence (whole entry): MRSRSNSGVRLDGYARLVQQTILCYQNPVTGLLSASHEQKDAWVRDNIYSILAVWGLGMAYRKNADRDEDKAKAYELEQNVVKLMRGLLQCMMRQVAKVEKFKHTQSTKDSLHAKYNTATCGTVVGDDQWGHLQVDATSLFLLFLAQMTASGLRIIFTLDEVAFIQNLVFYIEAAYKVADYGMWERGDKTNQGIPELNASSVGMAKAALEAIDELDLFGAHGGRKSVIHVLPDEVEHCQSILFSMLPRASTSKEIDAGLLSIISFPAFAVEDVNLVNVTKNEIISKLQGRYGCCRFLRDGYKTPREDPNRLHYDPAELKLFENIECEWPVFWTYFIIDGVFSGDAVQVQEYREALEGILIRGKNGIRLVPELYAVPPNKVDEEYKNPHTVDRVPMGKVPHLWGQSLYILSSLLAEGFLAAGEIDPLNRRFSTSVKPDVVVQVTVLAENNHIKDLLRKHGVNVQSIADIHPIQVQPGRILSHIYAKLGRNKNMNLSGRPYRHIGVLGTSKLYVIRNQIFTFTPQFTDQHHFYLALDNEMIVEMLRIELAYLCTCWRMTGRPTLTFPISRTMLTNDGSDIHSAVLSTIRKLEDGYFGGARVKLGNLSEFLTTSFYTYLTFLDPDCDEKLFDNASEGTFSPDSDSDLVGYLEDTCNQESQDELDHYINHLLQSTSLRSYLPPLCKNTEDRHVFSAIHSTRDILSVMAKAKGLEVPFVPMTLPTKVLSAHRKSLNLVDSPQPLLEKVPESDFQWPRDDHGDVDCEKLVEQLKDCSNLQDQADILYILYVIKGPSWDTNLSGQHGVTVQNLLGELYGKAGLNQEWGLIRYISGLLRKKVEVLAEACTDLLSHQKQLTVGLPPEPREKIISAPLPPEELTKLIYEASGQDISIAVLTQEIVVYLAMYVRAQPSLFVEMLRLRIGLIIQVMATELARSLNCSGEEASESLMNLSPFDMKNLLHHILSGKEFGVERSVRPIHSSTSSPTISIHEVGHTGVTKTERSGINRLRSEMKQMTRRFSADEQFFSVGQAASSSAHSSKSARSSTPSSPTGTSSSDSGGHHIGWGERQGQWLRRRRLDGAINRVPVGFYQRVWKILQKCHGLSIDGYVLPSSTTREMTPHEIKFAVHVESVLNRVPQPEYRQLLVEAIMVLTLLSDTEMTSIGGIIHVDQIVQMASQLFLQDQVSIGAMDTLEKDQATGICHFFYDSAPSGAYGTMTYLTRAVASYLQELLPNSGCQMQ

[6] = target: Cyclin-dependent kinase 2/cyclin A (Homo sapiens) (UniProt P24941+P20248+P78396)

Measured: residual activity

CCOC(=O)c1cc2cc(-c3cc(C(=O)NCc4ccc(C(=O)O)cc4)nn3C)ccc2[nH]1 [BI 4394]
inactive: [1] 100% | [2] 88% | [3] 94% | [4] 107% | [5] 82% | [6] 93%
